Experimental data: patent US20020058042A1, “Non-IgA fc binding forms of the Group B streptococcal beta antigens” (priority 1996, published 2002)
No end group written: not given here.

System: binding of human IgA to the purified Cβ protein
Assay: ELISA inhibition assay: peptides blocking binding of human IgA to purified Cβ protein
Conditions: synthetic peptide added with half-maximal dilution of IgA myeloma protein
Procedure: Several synthetic peptides were made corresponding to the amino acid sequence contained within this region of the Cβ protein. Peptides were synthesized using NMP t-butoxycarbonyl chemistry on an ABI 430A peptide synthesizer (Applied Biosystems, Foster City, Calif.) and were deprotected. Peptides from a sample of the resin were removed from the resin by treatment with HF in the presence of anisole (0° C./1 h). Preparative purification of these peptides were performed using a C18 column (2.14 ID×30 cm) (Dynamax-Rainin, Woburn, Mass.). The peptides were quantitated by PTC amino acid analysis using Waters Picotag system (Waters, Milford, Mass.). The synthesized peptides eluted from the C18 column as a major peak consisting of usually 75-85% of the total elution profile. The amino acid composition of the purified peptides were in good agreement with the sequence which was used to synthesize the peptides. […] The plates were incubated at 37° C. for 1 h and the absorbance at 405 nm determined using an Elida-5 microtiter plate reader (Physica, New York, N.Y.). […] This was done to obtain a titer of the human IgA myeloma protein which would give a half-maximal reading in the ELISA assay. […] The dilution of the human IgA myeloma protein which gave the half maximal reading was then added. […] The plates were then processed and read as described. The percentage of inhibition would be calculated as follows: […]

NHQKSQVEKMAEQKG [SEQ ID NO: 10] was tested, and the “inhibition of human IgA binding to purified Cβ” value was “inhibited”.
